Test results as given in PubChem BioAssay (NCI).
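Briefly, cells in 96-well plates were exposed to five compound concentrations for 48 h, and endpoints were estimated by linear interpolation. The concentration for 50% growth inhibition is given as GI50. TGI denotes the concentration required for complete inhibition of growth.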

Legend:
Experiment in all cases: NCI tumour cell line growth inhibition, 48 h
[1] = system: T-47D breast
[2] = system: SW-620 colon
[3] = system: HCT-116 colon
[4] = system: COLO 205 colon
[5] = system: NCI/ADR-RES ovarian
[6] = system: MCF7 breast
[7] = system: KM12 colon
[8] = system: MOLT-4 leukemia
[9] = system: A498 renal
[10] = system: RPMI-8226 leukemia
[11] = system: IGROV1 ovarian
[12] = system: OVCAR-8 ovarian
[13] = system: HT29 colon
[14] = system: A549 NSCLC
[15] = system: HOP-62 NSCLC
[16] = system: HCT-15 colon
[17] = system: CAKI-1 renal
[18] = system: UACC-257 melanoma
[19] = system: NCI-H522 lung
[20] = system: SF-539 CNS
[21] = system: RXF 393 renal
[22] = system: SK-OV-3 ovarian
[23] = system: UACC-62 melanoma
[24] = system: 786-0 renal
[25] = system: HS 578T breast
[26] = system: SK-MEL-28 melanoma
[27] = system: M14 melanoma
[28] = system: SK-MEL-5 melanoma
[29] = system: MDA-MB-435
[30] = system: SF-268 CNS
[31] = system: SNB-19 CNS
[32] = system: SK-MEL-2 melanoma
[33] = system: MDA-MB-231 breast
[34] = system: UO-31 renal
[35] = system: DU-145 prostate
[36] = system: ACHN renal
[37] = system: HOP-92 NSCLC
[38] = system: OVCAR-5 ovarian
[39] = system: U251 CNS
[40] = system: OVCAR-3 ovarian
[41] = system: PC-3 prostate
[42] = system: TK-10 renal
[43] = system: HL-60(TB) leukemia
[44] = system: NCI-H460 lung
[45] = system: EKVX NSCLC
[46] = system: NCI-H23 lung
[47] = system: OVCAR-4 ovarian
[48] = system: K-562 leukemia
[49] = system: SN12C renal
[50] = system: SNB-75 CNS
[51] = system: LOX IMVI melanoma
[52] = system: SF-295 CNS
[53] = system: HCC-2998 colon
[54] = system: BT-549 breast
[55] = system: CCRF-CEM leukemia
[56] = system: NCI-H226 lung
[57] = system: SR leukemia
[58] = system: MALME-3M melanoma

In the case of CN1C(=O)c2cc([N+](=O)[O-])ccc2[C@H]2C(=O)c3cc4c(cc3[C@H]21)OCO4, the GI50 [1] is reported as 321 nM, the TGI [1] is reported as greater than 29400 nM and the GI50 [2] is reported as 48.1 nM. It also gave a TGI [2] greater than 100000 nM, a GI50 [3] of 14.1 nM and a TGI [3] of 128 nM. For the same compound, the GI50 [4] was 225 nM, the TGI [4] was greater than 61200 nM and the GI50 [5] was 68.4 nM. For the same compound, the TGI [5] was 15200 nM, the GI50 [6] was 118 nM and the TGI [6] was 451 nM. For the same compound, the GI50 [7] was 337 nM, the GI50 [8] was 145 nM and the TGI [8] was greater than 100000 nM. It also gave a GI50 [9] of 257 nM, a TGI [9] of 528 nM and a GI50 [10] of 43.5 nM. For the same compound, the GI50 [11] was 153 nM, the TGI [11] was 12000 nM and the GI50 [12] was 70.2 nM. The GI50 [13] was 179 nM, the TGI [13] was greater than 43200 nM and the GI50 [14] was 115 nM. The TGI [14] was 1880 nM, the GI50 [15] was 158 nM and the TGI [15] was greater than 100000 nM. The GI50 [16] was 190 nM, the TGI [16] was greater than 50000 nM and the GI50 [17] was less than 10 nM. It also gave a TGI [17] of 228 nM, a GI50 [18] of 139 nM and a TGI [18] of 3300 nM. It also gave a GI50 [19] of less than 17.9 nM, a TGI [19] of 9420 nM and a GI50 [20] of 41 nM. The TGI [20] was 973 nM, the GI50 [21] was 398 nM and the GI50 [22] was 588 nM. For the same compound, the TGI [22] was greater than 100000 nM, the GI50 [23] was 35.6 nM and the TGI [23] was 337 nM. For the same compound, the GI50 [24] was 38.8 nM, the GI50 [25] was 930 nM and the TGI [25] was greater than 100000 nM. It also gave a GI50 [26] of 250 nM, a TGI [26] greater than 32400 nM and a GI50 [27] of less than 10 nM. It also gave a TGI [27] of 37 nM, a GI50 [28] of 53.4 nM and a TGI [28] of 176 nM. It also gave a GI50 [29] of 167 nM, a TGI [29] of 2720 nM and a GI50 [30] of 24.3 nM. The TGI [30] was 1680 nM, the GI50 [31] was 220 nM and the TGI [31] was greater than 28200 nM. For the same compound, the GI50 [32] was 1910 nM, the TGI [32] was greater than 45800 nM and the GI50 [33] was 360 nM. It also gave a TGI [33] of 4710 nM, a GI50 [34] of 40.9 nM and a TGI [34] of 1510 nM. The GI50 [35] was 50.6 nM, the TGI [35] was 14900 nM and the GI50 [36] was 13.4 nM. It also gave a TGI [36] of 46.3 nM, a GI50 [37] of 1490 nM and a GI50 [38] of 299 nM. The TGI [38] was 926 nM, the GI50 [39] was 19.1 nM and the TGI [39] was 162 nM. For the same compound, the GI50 [40] was 75.1 nM, the TGI [40] was 455 nM and the GI50 [41] was 521 nM. The TGI [41] was 63000 nM, the GI50 [42] was 1280 nM and the GI50 [43] was 215 nM. It also gave a TGI [43] greater than 100000 nM, a GI50 [44] of 28.5 nM and a TGI [44] of 195 nM. The GI50 [45] was 993 nM, the TGI [45] was greater than 24500 nM and the GI50 [46] was 210 nM. For the same compound, the TGI [46] was 796 nM, the GI50 [47] was 680 nM and the TGI [47] was greater than 100000 nM. For the same compound, the GI50 [48] was 199 nM, the TGI [48] was greater than 100000 nM and the GI50 [49] was 38.6 nM. The TGI [49] was 838 nM, the GI50 [50] was 120 nM and the TGI [50] was greater than 100000 nM. The GI50 [51] was 16.1 nM, the TGI [51] was 155 nM and the GI50 [52] was less than 10 nM. The TGI [52] was 1010 nM.

Work on COc1ccc(Cn2cnc3cc(C(=O)Nc4cccc5ccccc45)ccc32)c(OC)c1 yielded a GI50 [1] of 37.2 nM, a TGI [1] greater than 100000 nM and a GI50 [2] of 33.4 nM. For the same compound, the TGI [2] was greater than 100000 nM, the GI50 [53] was 197 nM and the TGI [53] was 14600 nM. The GI50 [3] was 37.4 nM, the TGI [3] was 4490 nM and the GI50 [4] was 46.2 nM. The TGI [4] was 724 nM, the GI50 [5] was 42 nM and the TGI [5] was greater than 100000 nM. The GI50 [6] was 35.7 nM, the TGI [6] was greater than 100000 nM and the GI50 [54] was 60.3 nM. It also gave a TGI [54] of 6530 nM, a GI50 [55] of 40.7 nM and a TGI [55] greater than 100000 nM. The GI50 [7] was 39.1 nM, the TGI [7] was 8060 nM and the GI50 [8] was 62.1 nM. It also gave a TGI [8] greater than 100000 nM, a GI50 [9] of 22.6 nM and a TGI [9] of 77.1 nM. It also gave a GI50 [10] of 36.8 nM, a TGI [10] of 12500 nM and a GI50 [11] of 65.3 nM. It also gave a TGI [11] greater than 100000 nM, a GI50 [12] of 60.3 nM and a TGI [12] greater than 100000 nM. For the same compound, the GI50 [13] was 34.5 nM, the TGI [13] was 5180 nM and the GI50 [14] was 64.4 nM. For the same compound, the TGI [14] was greater than 100000 nM, the GI50 [16] was 44.3 nM and the TGI [16] was greater than 51100 nM. For the same compound, the GI50 [56] was 111 nM, the TGI [56] was greater than 100000 nM and the GI50 [17] was 38.7 nM. For the same compound, the TGI [17] was greater than 100000 nM, the GI50 [18] was 39000 nM and the TGI [18] was greater than 100000 nM. The GI50 [19] was 39 nM, the GI50 [20] was 31.6 nM and the TGI [20] was 147 nM. The GI50 [21] was 35.5 nM, the TGI [21] was greater than 100000 nM and the GI50 [22] was 106 nM. The TGI [22] was greater than 100000 nM, the GI50 [23] was 53.1 nM and the TGI [23] was greater than 66700 nM. It also gave a GI50 [57] of 22.8 nM, a TGI [57] greater than 100000 nM and a GI50 [24] of 45 nM. The TGI [24] was greater than 100000 nM, the GI50 [25] was 35.1 nM and the TGI [25] was greater than 100000 nM. It also gave a GI50 [26] of 1630 nM, a TGI [26] greater than 100000 nM and a GI50 [27] of 27.5 nM. The GI50 [28] was 50.2 nM, the TGI [28] was 6710 nM and the GI50 [29] was 17.3 nM. It also gave a TGI [29] of 35.8 nM, a GI50 [30] of 104 nM and a TGI [30] greater than 51700 nM. The GI50 [31] was 46.5 nM, the TGI [31] was greater than 100000 nM and the GI50 [32] was 945 nM. It also gave a TGI [32] greater than 100000 nM, a GI50 [33] of 89.4 nM and a TGI [33] of 4310 nM. It also gave a GI50 [34] of 75.9 nM, a TGI [34] greater than 100000 nM and a GI50 [35] of 43.9 nM. The TGI [35] was 3360 nM, the GI50 [36] was 78 nM and the TGI [36] was greater than 100000 nM. It also gave a GI50 [37] of 153 nM, a TGI [37] greater than 100000 nM and a GI50 [38] of 180 nM. For the same compound, the TGI [38] was greater than 100000 nM, the GI50 [39] was 39.8 nM and the TGI [39] was greater than 100000 nM. The GI50 [40] was 26.7 nM, the TGI [40] was 77.6 nM and the GI50 [41] was 51 nM. The TGI [41] was greater than 100000 nM, the GI50 [42] was 1170 nM and the TGI [42] was greater than 100000 nM. The GI50 [43] was 31.9 nM, the TGI [43] was 145 nM and the GI50 [44] was 36.3 nM. For the same compound, the TGI [44] was 1210 nM, the GI50 [45] was 65.4 nM and the TGI [45] was greater than 100000 nM. For the same compound, the GI50 [46] was 89.8 nM, the TGI [46] was greater than 100000 nM and the GI50 [47] was 122 nM. The TGI [47] was greater than 100000 nM, the GI50 [58] was 61.4 nM and the TGI [58] was greater than 100000 nM. It also gave a GI50 [48] of 34.4 nM, a TGI [48] greater than 100000 nM and a GI50 [49] of 69.1 nM. It also gave a TGI [49] greater than 100000 nM, a GI50 [51] of 61.1 nM and a TGI [51] greater than 100000 nM. For the same compound, the GI50 [52] was 34.1 nM and the TGI [52] was greater than 100000 nM.
